Values after ≈ are worked out from the molar mass of the structure shown.
Tests used:
E. coli (AAC(3)IV) = assay: MIC 50, broth micro-dilution, E. coli expressing AAC(3)IV; type: cell-based, Escherichia coli
Method: (§1) Plasmid transformation. Approximately 500 ng of the pET-9b(+) (Cat. No. 69432-3, Merck), pAT21-1 (provided by Prof. Dr. Patrice Courvalin, M.D., Pasteur Institute, France; prepared according to Trieu-Cuot et. al, Mol. Gen. Genet. 198(2), 348 (1985)), pBluescript::AAC(6′)-Ie/APH(2″)-Ia (provided by Prof. Dr. Sergei Vakulenko, M.D., University of Notre Dame, Ind., USA; prepared according to S. B. Vakulenko et. al., J. Biol. Chem. 287 (52), 43262 (2012)), pBlue_lpp_aacC3_rrnC and pSET152 (Cat. No. PVT3395, Life Science Market; prepared according to Bierman et al., Gene 116 (1), 43 (1992)) plasmids, encoding APH(3′)-Ia (SEQ ID NO:2), APH(3′)-IIIa (SEQ ID NO:3), AAC(6′)Ie-APH(2″)-Ia (SEQ ID NO:4), AAC(3)-III (SEQ ID NO:1), and AAC(3)-IV (SEQ ID NO:5) respectively, were individually incubated in a vial of competent cells for 15 min on ice. The cells were subsequently heated to 42° C. for 90 s, and cooled on ice for 1 min. After addition of 900 μL LB, the cells were incubated for 1 h at 37° C. and 200 rpm. Cells were plated on LB-agar supplemented with 50 μg/mL KanaA and incubated for 18 h at 37° C. The next day, a single colony was inoculated in 5 mL LB supplemented with 50 μg/mL and grown for 18 h at 37° C. and 200 rpm. A 200 μL sample of each culture was diluted with 200 μL of 40% v/v glycerol in water, and stored at −80° C. The plasmid was purified from the remaining culture using the Plasmid Miniprep kit. Plasmid DNA was investigated by Eurofins Genomics (Germany) to confirm the identity of the aminoglycoside resistance genes.
(§2) 3.1 Against E. coli Strains
(§3) Tested reference compounds. Amikacin sulfate (Cat. No. 01693, Chem-Impex), Gentamicin sulfate (Cat. No. G4918, Sigma Aldrich).
(§4) Microbial strains. E. coli ATCC 25922, E. coli ATCC 25922/pET-9b(+), E. coli ATCC 25922/pAT21-1, E. coli ATCC 25922/pBluescript::AAC(6′)-Ie/APH(2″)-Ia, E. coli ATCC 25922/pBlue_lpp_aacC3_rrnC, E. coli ATCC 25922/pSET152.
(§5) Culture media and equipment. BBL™ Mueller Hinton Broth 2 (Lot. BCBW1143, Cat. No. 70192, Sigma); Kanamycin A (Cat. No. A1493, AppliChem); 96-well deep well plate, 1 mL (Cat. No. 0030506.200, Eppendorf); Plate lids (Cat. No. 0030131.525, Eppendorf); 96-well plate, F-bottom (Cat. No. 781602, Brand; Incubator, Infors Multitron Pro); Laminar flow (Heraeus KS12); UV/VIS meter (Eppendorf BioPhotometer Plus); Platereader (Tecan Sunrise).
(§6) Compound preparation. Compounds were prepared in MH2 media at a concentration of 5 mM and stored at 4° C. For testing, solutions of 128 μM were prepared in MH2. Out of these working solutions, 400 μL was transferred to wells in the first column of 96-well deep well plates. Each compound was transferred in triplicate. Plates were previously filled with 200 μL of MH2 media in all wells except for the wells in the first column. After compound and antibiotic addition, the compounds were serial two-fold diluted by transferring 200 μL from the first to the second column, then from the second to the third column and so on. Finally, 200 μL was removed from the last column.
Inoculum preparation. Microorganisms used were all revived from 20% glycerol (40% v/v glycerol in water was diluted with MH2) storage at −80° C. by inoculating them in 5 mL MH2. inoculums of E. coli containing a plasmid were selected for by adding 50 μg/mL KanaA. The Inoculums were grown to an optical density (measured by UV/Vis spectroscopy) of 0.6-0.8 at 600 nm. Out of these suspensions, actual inoculums were prepared by diluting them to an optical density (OD) of 0.1 in MH2 media. From these inoculums, 200 μL was transferred to each well, resulting in a final compound concentration range of 64 μM-31.3 nM. All plates were incubated at 900 rpm and 70% rH for 18 h at 37° C.
MIC determination. After 18 h of growth, 200 μL was transferred to a 96-well F-bottom plate. The optical density was determined by a plate reader at 600 nm, with 10 s shaking before reading. Triplicate measurements were averaged, and a growth curve was plotted in Microsoft Excel. […]

E. coli (AAC(3)III) = assay: MIC 50, broth micro-dilution, E. coli expressing AAC(3)III; type: cell-based, Escherichia coli
Excerpt: Cloning resistant enzymes. An Escherichia coli codon optimized gene encoding AAC(3)-III (GenBank acc.nr. X55652.1; SEQ ID NO:1), including a promoter and terminator sequence, was synthesized by Integrated DNA Technologies, Belgium. The synthesized gene and pBluescript II KS(+) plasmid were digested using the restriction enzymes SacI and SalI, and purified from a 1% TBE-agarose gel using the illustra Gel Band purification kit. The purified linear plasmid and T4 DNA ligase were used to ligate aac(3)-III under control of the constitutive lipoprotein Ipp promoter and ribosomal RNA rrnC terminator, resulting in pBlue_Ipp_aacC3_rrnC.
as §1, §2, §3, §4, §5, §6
Inoculum preparation. Microorganisms used were all revived from 20% glycerol (40% v/v glycerol in water was diluted with MH2) storage at −80° C. by inoculating them in 5 mL MH2. inoculums of E. coli containing a plasmid were selected for by adding 50 μg/mL KanaA.

[1] = ATCC25922 harboring plasmid encoding AAC(3)IV
[2] = ATCC25922 harboring plasmid encoding AAC(3)III
[3] = Escherichia coli, ATCC25922, ATCC25922 harboring plasmid encoding AAC(3)IV
[4] = Escherichia coli, ATCC25922, ATCC25922 harboring plasmid encoding AAC(3)III

| SMILES | MIC50 (E. coli (AAC(3)IV); [1]) [µM] | MIC50 (E. coli (AAC(3)III); [2]) [µM] | MIC50 (E. coli (AAC(3)IV); [3]) [µM] | MIC50 (E. coli (AAC(3)III); [4]) [µM] |
| --- | --- | --- | --- | --- |
| NCCC(O)C(=O)NC1CC(N)C(OC2OC(CN)C(O)C(O)C2N)C(O)C1OC1OC(CO)C(O)C(N)C1O (stereo not drawn) [ABX4001, KanaB-AHB] | 4 (≈ 2.34 µg/mL) | 1 to 2 | – | – |
| N=C(NC[C@@H]1CCNC1)NC1[C@@H](O)C(OC2[C@@H](F)[C@H](O[C@H]3OC(CN)[C@@H](O)CC3N)C(N)C[C@H]2NC(=O)[C@@H](O)CCN)O[C@H](CO)[C@H]1O (stereo partly drawn) [ABX5039, Tobra-AHB-F-Gua (R) pyrrolidine-3-ylmethyl] | – | – | 1 (≈ 0.696 µg/mL) | 0.25 (≈ 0.174 µg/mL) |
| N=C(NC[C@H]1CNCCO1)NC1[C@@H](O)C(OC2[C@@H](F)[C@H](O[C@H]3OC(CN)[C@@H](O)CC3N)C(N)C[C@H]2NC(=O)[C@@H](O)CCN)O[C@H](CO)[C@H]1O (stereo partly drawn) [ABX5043, Tobra-AHB-F-Gua (R) morpholin-2-yl methyl] | – | – | 1 (≈ 0.712 µg/mL) | 0.25 (≈ 0.178 µg/mL) |
| N=C(NCCN)NC1C(O)[C@@H](CO)OC(OC2C(F)[C@H](O[C@H]3OC(CN)[C@@H](O)CC3N)C(N)C[C@H]2NC(=O)[C@@H](O)CCN)[C@@H]1O (stereo partly drawn) [ABX5020, Tobra-AHB-F-Gua-2-amino-ethyl] | – | – | 1 (≈ 0.656 µg/mL) | 0.25 to 0.5 (≈ 0.164 to 0.328 µg/mL) |
| N=C(N)NC1[C@@H](O)C(OC2[C@@H](F)[C@H](O[C@H]3OC(CN)[C@@H](O)[C@H](O)C3O)C(N)C[C@H]2NC(=O)[C@@H](O)CCN)O[C@H](CO)[C@H]1O (stereo partly drawn) [ABX3003, 3′epi-KanaA-AHB-F-Gua] | – | – | 4 (≈ 2.52 µg/mL) | 1 (≈ 0.63 µg/mL) |
| N=C(NCc1cnc[nH]1)NC1[C@@H](O)C(OC2[C@@H](F)[C@H](O[C@H]3OC(CN)[C@@H](O)CC3N)C(N)C[C@H]2NC(=O)[C@@H](O)CCN)O[C@H](CO)[C@H]1O (stereo partly drawn) [ABX5050, Tobra-AHB-F-Gua imidazol-5-yl methyl] | – | – | 2 to 4 (≈ 1.39 to 2.77 µg/mL) | 1 (≈ 0.693 µg/mL) |
| NCC[C@H](O)C(=O)N[C@@H]1CC(N)[C@@H](O[C@H]2OC(CN)[C@@H](O)CC2N)[C@H](F)C1OC1O[C@H](CO)[C@@H](O)C(N)[C@H]1O (stereo partly drawn) [ABX5024, Tobra-AHB-F] | 2 (≈ 1.14 µg/mL) | 1 (≈ 0.571 µg/mL) | – | – |
| N=C(N)NC1[C@@H](O)C(OC2[C@@H](O)[C@H](O[C@H]3OC(CN)[C@@H](O)[C@H](O)C3N)C(N)C[C@H]2NC(=O)[C@@H](O)CCN)O[C@H](CO)[C@H]1O (stereo partly drawn) [ABX4009, KanaB-AHB-Gua] | 8 (≈ 5.01 µg/mL) | 1 to 2 | – | – |
| NCCC(O)C(=O)NC1CC(N)C(OC2OC(CN)C(O)C(O)C2O)C(F)C1OC1OC(CO)C(O)C(N)C1O (stereo not drawn) [ABX3005, 3′Epi-KanaA-AHB-F] | 8 to 16 | 4 (≈ 2.35 µg/mL) | – | – |
| N=C(N)NC1[C@@H](O)C(OC2[C@@H](F)[C@H](O[C@H]3OC(CN)[C@@H](O)[C@H](O)C3N)C(N)C[C@H]2NC(=O)[C@@H](O)CCN)O[C@H](CO)[C@H]1O (stereo partly drawn) [ABX4004, 3′epi-KanaB-AHB-F-Gua] | 4 (≈ 2.51 µg/mL) | 0.5 (≈ 0.314 µg/mL) | – | – |
| N=C(NCC1CCCO1)NC1[C@@H](O)C(OC2[C@@H](F)[C@H](O[C@H]3OC(CN)[C@@H](O)CC3N)C(N)C[C@H]2NC(=O)[C@@H](O)CCN)O[C@H](CO)[C@H]1O (stereo partly drawn) [ABX5046, Tobra-AHB-F-Gua tetrahydrofuran-2-yl methyl] | – | – | 1 to 2 (≈ 0.697 to 1.39 µg/mL) | 0.5 (≈ 0.348 µg/mL) |
| N=C(N)NC1[C@@H](O)C(OC2[C@@H](O)[C@H](O[C@H]3OC(CN)[C@@H](O)CC3N)C(N)C[C@H]2NC(=O)[C@@H](O)CCN)O[C@H](CO)[C@H]1O (stereo partly drawn) [ABX5005, Tobra-AHB-Gua] | 1 to 2 | 0.5 (≈ 0.305 µg/mL) | – | – |
| N=C(NCCCO)NC1[C@@H](O)C(OC2[C@@H](F)[C@H](O[C@H]3OC(CN)[C@@H](O)CC3N)C(N)C[C@H]2NC(=O)[C@@H](O)CCN)O[C@H](CO)[C@H]1O (stereo partly drawn) [ABX5041, Tobra-AHB-F-Gua 3-hydroxy-propyl] | – | – | 2 (≈ 1.34 µg/mL) | 0.5 (≈ 0.335 µg/mL) |
| N=C(NCC1CC1)NC1[C@@H](O)C(OC2[C@@H](F)[C@H](O[C@H]3OC(CN)[C@@H](O)CC3N)C(N)C[C@H]2NC(=O)[C@@H](O)CCN)O[C@H](CO)[C@H]1O (stereo partly drawn) [ABX5027, Tobra-AHB-F-Gua cyclopropylmethyl] | – | – | 2 (≈ 1.33 µg/mL) | 0.25 (≈ 0.167 µg/mL) |
| NCC[C@H](O)C(=O)N[C@@H]1CC(N)[C@@H](O[C@H]2OC(CN)[C@@H](O)[C@@H](O)C2N)[C@H](O)C1OC1O[C@H](CO)[C@@H](O)C(N)[C@H]1O (stereo partly drawn) [ABX4002, 3′Epi-KanaB-AHB] | 8 to 16 | 4 (≈ 2.34 µg/mL) | – | – |
| N=C(NCCCN)NC1[C@@H](O)C(OC2[C@@H](F)[C@H](O[C@H]3OC(CN)[C@@H](O)CC3N)C(N)C[C@H]2NC(=O)[C@@H](O)CCN)O[C@H](CO)[C@H]1O (stereo partly drawn) [ABX5030, Tobra-AHB-F-Gua-3-amino-propyl] | – | – | 0.5 (≈ 0.335 µg/mL) | 0.25 (≈ 0.167 µg/mL) |
| NCC[C@H](O)C(=O)N[C@@H]1CC(N)[C@@H](O[C@H]2OC(CN)[C@@H](O)CC2N)[C@H](O)C1OC1O[C@H](CO)[C@@H](O)C(N)[C@H]1O (stereo partly drawn) [ABX5004, Tobra-AHB] | 4 (≈ 2.27 µg/mL) | 1 (≈ 0.569 µg/mL) | – | – |
| C[C@@H](N)CCNC(=N)NC1[C@@H](O)C(OC2[C@@H](F)[C@H](O[C@H]3OC(CN)[C@@H](O)CC3N)C(N)C[C@H]2NC(=O)[C@@H](O)CCN)O[C@H](CO)[C@H]1O (stereo partly drawn) [ABX5047, Tobra-AHB-F-Gua (R) 3-amino-butyl] | – | – | 1 to 2 (≈ 0.684 to 1.37 µg/mL) | 0.25 (≈ 0.171 µg/mL) |
| NCC[C@H](O)C(=O)N[C@@H]1CC(N)[C@@H](O[C@H]2OC(CN)[C@@H](O)[C@@H](O)C2N)[C@H](F)C1OC1O[C@H](CO)[C@@H](O)C(N)[C@H]1O (stereo partly drawn) [ABX4003, 3′Epi-KanaB-AHB-F] | 8 to 16 | 2 (≈ 1.17 µg/mL) | – | – |
| CC(C)(C)CCNC(=N)NC1[C@@H](O)C(OC2[C@@H](F)[C@H](O[C@H]3OC(CN)[C@@H](O)CC3N)C(N)C[C@H]2NC(=O)[C@@H](O)CCN)O[C@H](CO)[C@H]1O (stereo partly drawn) [ABX5025, Tobra-AHB-F-Gua 2-tBu-ethyl] | – | – | 2 (≈ 1.39 µg/mL) | 0.5 (≈ 0.348 µg/mL) |
| N=C(N)N[C@@H]1[C@@H](O)[C@@H](O[C@@H]2[C@@H](O)[C@H](O[C@H]3O[C@H](CN)[C@@H](O)[C@@H](O)[C@H]3N)[C@@H](N)C[C@H]2NC(=O)[C@@H](O)CCN)O[C@H](CO)[C@H]1O [ABX4005, 3′Epi-KanaB-AHB-Gua] | 16 (≈ 10 µg/mL) | 4 (≈ 2.51 µg/mL) | – | – |
